Data on 23 compounds can be found in patent US6221866A, “Indanyl-substituted benzenecarboxamides, processes for their preparation, their use as a medicament, and pharmaceutical formulations containing them” (priority 1999, dated 2001).

For one assay, the system named is Kv1.5 channel. The conditions noted are these: described in the literature, side effect alongside other principal effects; cited from earlier work.
Assay [1] relates to fast-activating potassium channel IKr. The note with it: human ventricle and atrium cells; cited from earlier work.
The target in a further assay is T1, Human Kv1.5 channels (Homo sapiens, UniProt P22460).
T1 construct: expressed in transfected cells; host or cells: Xenopus laevis oocytes injected with Kv1.5-coding RNA synthesized in vitro
The assay is described as follows: Inhibition of human Kv1.5 current expressed in Xenopus oocytes (two microelectrode voltage clamp). Type of assay: cell-based. The conditions noted are these: human Kv1.5 expressed in Xenopus oocytes; voltage jumps to 0 mV and 40 mV, 500 ms; RT; pH 7.4; Hill equation. The method, then: Human Kv1.5 channels were expressed in Xenopus oocytes. For this purpose, oocytes were first isolated from Xenopus laevis and were defolliculated. Kv1.5-coding RNA synthesized in vitro was then injected into these oocytes. After Kv1.5 protein expression for 1-7 days, Kv1.5 currents were measured on the oocytes by the two microelectrode voltage clamp technique. Here, the Kv1.5 channels were activated as a rule with voltage jumps to 0 mV and 40 mV, lasting for 500 ms. The bath was flushed with a solution of the following composition: 96 mM NACl, 2 mM KCl, 1.8 mM CaCl2, 1 mM MgCl2, and 5 mM HEPES (tritrated with NaOH to pH 7.4). These experiments were carried out at RT. The following were used for data acquisition and analysis: Geneclamp amplifier (Axon Instruments, Foster City, USA) and MacLab D/A converter and software (ADinstruments, Castle Hill, Australia). The substances according to the invention were tested by adding them in different concentrations to the bath solution. The effects of the substances were calculated as percentage inhibition of the Kv1.5 control current obtained when no substance was added to the solution. The data were then extrapolated using the Hill equation, in order to determine the inhibitory concentration (IC50) for the respective substances.

Usually IC50 stands for the concentration needed to halve the response being measured. A high value points to lower potency.

T1 sequence (P22460 whole entry): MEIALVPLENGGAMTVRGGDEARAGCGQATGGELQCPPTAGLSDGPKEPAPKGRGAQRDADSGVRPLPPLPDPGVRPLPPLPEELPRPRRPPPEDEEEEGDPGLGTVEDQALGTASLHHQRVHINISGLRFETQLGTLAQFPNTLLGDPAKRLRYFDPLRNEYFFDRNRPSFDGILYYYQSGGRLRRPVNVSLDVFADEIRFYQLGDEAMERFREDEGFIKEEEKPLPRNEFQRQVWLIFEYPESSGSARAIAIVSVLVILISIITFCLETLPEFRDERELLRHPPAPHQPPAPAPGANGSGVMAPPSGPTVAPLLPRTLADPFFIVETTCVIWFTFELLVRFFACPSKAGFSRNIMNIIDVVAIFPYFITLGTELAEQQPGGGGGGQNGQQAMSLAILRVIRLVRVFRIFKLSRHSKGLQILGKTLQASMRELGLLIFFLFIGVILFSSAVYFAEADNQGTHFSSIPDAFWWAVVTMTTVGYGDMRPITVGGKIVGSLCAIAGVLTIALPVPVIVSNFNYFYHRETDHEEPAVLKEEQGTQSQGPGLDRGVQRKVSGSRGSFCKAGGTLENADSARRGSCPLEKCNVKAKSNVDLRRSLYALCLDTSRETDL

As to `CCCCN1CCCCC1C(=O)Nc1c(C)cccc1C` (centres unmarked) [Bupivacaine], in the assay on Kv1.5 channel, the “blocking effect on the Kv1.5 channel (in words)” value (shortened to “blocking effect”) is “blocking effect on the Kv1.5 channel”.

In the case of `CN(CCOc1ccc(NS(C)(=O)=O)cc1)CCc1ccc(NS(C)(=O)=O)cc1` [Dofetilide], in assay [1], the “block of IKr (in words)” value was “predominantly or exclusively block the fast-activating potassium channel IKr”.

On Human Kv1.5 channels, `NS(=O)(=O)c1cc(C(=O)NC2CCc3ccccc32)ccc1Cl` (centres unmarked) [Example 1] had a concentration for half-maximal inhibition (IC50) of more than 10 µM.

At Human Kv1.5 channels, `CCCCNS(=O)(=O)c1cc(C(=O)NC2CCc3ccccc32)ccc1Cl` (centres unmarked) [Example 3] displayed an IC50 of 7.7 µM.

In the case of `CC(C)CNS(=O)(=O)c1cc(C(=O)NC2CCc3ccccc32)c(Cl)cc1Cl` (centres unmarked) [Example 10], the IC50 against Human Kv1.5 channels came out at 4.8 µM.

`CC(C)CCNS(=O)(=O)c1cc(C(=O)NC2CCc3ccccc32)c(Cl)cc1Cl` (centres unmarked) [Example 11] came in with a concentration for half-maximal inhibition (IC50) at Human Kv1.5 channels of 2.8 µM.

`O=C(NC1CCc2ccccc21)c1cc(S(=O)(=O)NC2CCCCC2)c(Cl)cc1Cl` (centres unmarked) [Example 13] showed a half-maximal inhibitory concentration (IC50) on Human Kv1.5 channels of 3.9 µM.

`O=C(NC1CCc2ccccc21)c1cc(S(=O)(=O)NC2CCC2)c(Cl)cc1Cl` (centres unmarked) [Example 14] registered an IC50 against Human Kv1.5 channels of 4.2 µM.

As for `CC(C)CCNS(=O)(=O)c1cc(C(=O)N[C@@H]2CCc3ccccc32)c(Cl)cc1Cl` [Example 19], the half-inhibitory concentration (IC50) against Human Kv1.5 channels was approximately 3 µM.

As for `CC(C)CCNS(=O)(=O)c1cc(C(=O)N[C@H]2CCc3ccccc32)c(Cl)cc1Cl` [Example 20], the IC50 against Human Kv1.5 channels is approximately 3 µM.

Turning to `Cc1ccc(S(=O)(=O)NCCC(C)C)cc1C(=O)NC1CCc2ccccc21` (centres unmarked) [Example 43], the half-inhibitory concentration (IC50) at Human Kv1.5 channels stood at 5.3 µM.

`Cc1ccc(S(=O)(=O)NC2CCCCC2)cc1C(=O)NC1CCc2ccccc21` (centres unmarked) [Example 51] displayed a concentration for half-maximal inhibition (IC50) against Human Kv1.5 channels of 7.1 µM.

For `Cc1cc(C)c(S(=O)(=O)NCCC(C)C)cc1C(=O)NC1CCc2ccccc21` (centres unmarked) [Example 57], it took 8.8 µM to reach half-maximal inhibition at Human Kv1.5 channels (IC50).

Take `Cc1cc(S(=O)(=O)NCCC(C)C)cc(C(=O)NC2CCc3ccccc32)c1C` (centres unmarked) [Example 60]: the IC50 on Human Kv1.5 channels is 6.9 µM. The IC50 values of the last two compounds are within 1.5-fold of each other.

For the compound `O=C(NC1CCc2ccccc21)c1cc(S(=O)(=O)Nc2ccccc2)ccc1Cl` (centres unmarked) [Example 62], the IC50 against Human Kv1.5 channels came to 6.3 µM.

In the case of `O=C(NC1CCc2ccccc21)c1cc(S(=O)(=O)NC2CCCCC2)c(F)cc1Cl` (centres unmarked) [Example 73], the IC50 on Human Kv1.5 channels came to 6.2 µM.

In turn, `COc1ccc2c(c1)C(NC(=O)c1ccc(Cl)c(S(=O)(=O)NCCC(C)C)c1)CC2` (centres unmarked) [Example 88] registered an IC50 at Human Kv1.5 channels of 8.7 µM.

Compound `COc1cc2c(cc1OC)C(NC(=O)c1ccc(Cl)c(S(=O)(=O)NCCC(C)C)c1)CC2` (centres unmarked) [Example 89] showed a concentration for half-maximal inhibition (IC50) on Human Kv1.5 channels of 5.6 µM.

Consider `COc1ccc(NS(=O)(=O)c2cc(C(=O)NC3CCc4ccccc43)c(Cl)cc2F)cc1` (centres unmarked) [Example 90], for which the IC50 at Human Kv1.5 channels came to 2.8 µM.

Turning to `CN(C(=O)c1cc(S(=O)(=O)NC2CCCCC2)ccc1Cl)C1CCc2ccccc21` (centres unmarked) [Example 94], half-maximal inhibition against Human Kv1.5 channels (IC50) was put at 2.2 µM.

With `O=C1NCCN1CCN1CCC(c2cn(-c3ccc(F)cc3)c3ccc(Cl)cc23)CC1` [Sertindole], the “blocking effect” value with Kv1.5 channel is “blocking effect on the Kv1.5 channel”.

Take `C1CCC2(C1)C1CN(CC3CC3)CC2CN(CC2CC2)C1` [Tedisamil]: the “blocking effect” value in the assay with Kv1.5 channel is on record as “blocking effect on the Kv1.5 channel”.

Take `CC(C)NC[C@@H](O)c1ccc(NS(C)(=O)=O)cc1` [d-Sotalol]: in assay [1], the “block of IKr (in words)” value is reported as “predominantly or exclusively block the fast-activating potassium channel IKr”.
